{
  "source": "ChEMBL document CHEMBL2074319",
  "about": "“The antiviral nucleotide analogs cidofovir and adefovir are novel substrates for human and rat renal organic anion transporter 1” (Mol Pharmacol, 1999)",
  "molecules": {"B1": {"name": "Solute carrier family 22 member 6 (Rattus norvegicus) (protein)", "chain": "MAFNDLLKQVGGVGRFQLIQVTMVVAPLLLMASHNTLQNFTAAIPPHHCRPPANANLSKDGGLEAWLPLDKQGQPESCLRFTSPQWGPPFYNGTEANGTRVTEPCIDGWVYDNSTFPSTIVTEWNLVCSHRAFRQLAQSLYMVGVLLGAMVFGYLADRLGRRKVLILNYLQTAVSGTCAAYAPNYTVYCVFRLLSGMSLASIAINCMTLNVEWMPIHTRAYVGTLIGYVYSLGQFLLAGIAYAVPHWRHLQLVVSVPFFIAFIYSWFFIESARWYSSSGRLDLTLRALQRVARINGKQEEGAKLSIEVLRTSLQKELTLSKGQASAMELLRCPTLRHLFLCLSMLWFATSFAYYGLVMDLQGFGVSMYLIQVIFGAVDLPAKFVCFLVINSMGRRPAQMASLLLAGICILVNGIIPKSHTIIRTSLAVLGKGCLASSFNCIFLYTGELYPTVIRQTGLGMGSTMARVGSIVSPLVSMTAEFYPSMPLFIFGAVPVVASAVTALLPETLGQPLPDTVQDLKSRSRGKQNQQQQEQQKQMMPLQASTQEKNGL"}, "B2": {"name": "Solute carrier family 22 member 6 (Homo sapiens) (protein)", "chain": "MAFNDLLQQVGGVGRFQQIQVTLVVLPLLLMASHNTLQNFTAAIPTHHCRPPADANLSKNGGLEVWLPRDRQGQPESCLRFTSPQWGLPFLNGTEANGTGATEPCTDGWIYDNSTFPSTIVTEWDLVCSHRALRQLAQSLYMVGVLLGAMVFGYLADRLGRRKVLILNYLQTAVSGTCAAFAPNFPIYCAFRLLSGMALAGISLNCMTLNVEWMPIHTRACVGTLIGYVYSLGQFLLAGVAYAVPHWRHLQLLVSAPFFAFFIYSWFFIESARWHSSSGRLDLTLRALQRVARINGKREEGAKLSMEVLRASLQKELTMGKGQASAMELLRCPTLRHLFLCLSMLWFATSFAYYGLVMDLQGFGVSIYLIQVIFGAVDLPAKLVGFLVINSLGRRPAQMAALLLAGICILLNGVIPQDQSIVRTSLAVLGKGCLAASFNCIFLYTGELYPTMIRQTGMGMGSTMARVGSIVSPLVSMTAELYPSMPLFIYGAVPVAASAVTVLLPETLGQPLPDTVQDLESRWAPTQKEAGIYPRKGKQTRQQQEHQKYMVPLQASAQEKNGL"}},
  "key": {"[1]": {"biological_target": "T1, Solute carrier family 22 member 6 (Homo sapiens, UniProt Q4U2R8)", "T1 sequence (Q4U2R8 whole entry)": "B2 chain", "assay": "TP_TRANSPORTER: inhibition of PAH uptake (PAH: 50 uM, 2,4-D: 1000 uM) in Xenopus laevis oocytes", "format": "functional, cell-based", "conditions": "oocyte"}, "[2]": {"biological_target": "T2, Solute carrier family 22 member 6 (Rattus norvegicus, UniProt O35956)", "T2 sequence (O35956 whole entry)": "B1 chain", "assay": "(§1) TP_TRANSPORTER: uptake in Xenopus laevis oocytes", "format": "functional, cell-based", "conditions": "oocyte"}, "[3]": {"biological_target": "T1, Solute carrier family 22 member 6", "assay": "as §1", "format": "functional, cell-based", "conditions": "oocyte"}, "[4]": {"biological_target": "T1, Solute carrier family 22 member 6", "assay": "TP_TRANSPORTER: inhibition of PAH uptake (PAH: 50 uM, BCG: 1000 uM) in Xenopus laevis oocytes", "format": "functional, cell-based", "conditions": "oocyte"}, "[5]": {"biological_target": "T1, Solute carrier family 22 member 6", "assay": "TP_TRANSPORTER: inhibition of PAH uptake (PAH: 50 uM, alpha-KG: 1000 uM) in Xenopus laevis oocytes", "format": "functional, cell-based", "conditions": "oocyte"}, "[6]": {"substrate": "Nc1ccn(C[C@@H](CO)OCP(=O)(O)O)c(=O)n1", "assay": "as §1", "format": "functional, cell-based, Oocyte"}, "[7]": {"substrate": "Nc1ncnc2c1ncn2CCOCP(=O)(O)O", "assay": "as §1", "format": "functional, cell-based, Oocyte"}},
  "data": [
    {"molecule": "O=C(O)COc1ccc(Cl)cc1Cl", "note": "[2,4-DICHLOROPHENOXYACETIC ACID]", "values": [
      {"measurement": "Activity", "setting": "[1]", "value": "inhibitor [(at a rough estimate) <5 % of control]"}
    ]},
    {"molecule": "Nc1nc2c(ncn2CCOCP(=O)(O)O)c(=O)[nH]1", "note": "[GS-438]", "values": [
      {"measurement": "Activity", "setting": "[2]", "value": "substrate [+]"},
      {"measurement": "Activity", "setting": "[3]", "value": "substrate [+]"}
    ]},
    {"molecule": "Nc1nc(N)c2ccn(CCOCP(=O)(O)O)c2n1", "values": [
      {"measurement": "Activity", "setting": "[2]", "value": "substrate [+]"},
      {"measurement": "Activity", "setting": "[3]", "value": "substrate [+]"}
    ]},
    {"molecule": "Cc1c(C2(c3cc(Br)c(O)c(Br)c3C)OS(=O)(=O)c3ccccc32)cc(Br)c(O)c1Br", "note": "[BROMCRESOL GREEN]", "values": [
      {"measurement": "Activity", "setting": "[4]", "value": "inhibitor [(at a rough estimate) <5 % of control]"}
    ]},
    {"molecule": "O=C(O)CCC(=O)C(=O)O", "note": "[ALPHA-KETOGLUTARIC ACID]", "values": [
      {"measurement": "Activity", "setting": "[5]", "value": "inhibitor [(at a rough estimate) 5 % of control]"}
    ]},
    {"molecule": "B1", "values": [
      {"measurement": "Km", "setting": "[6]", "value": 238, "unit": "µM"},
      {"measurement": "Km", "setting": "[7]", "value": 270, "unit": "µM"}
    ]},
    {"molecule": "B2", "values": [
      {"measurement": "Km", "setting": "[6]", "value": 46, "unit": "µM"},
      {"measurement": "Km", "setting": "[7]", "value": 30, "unit": "µM"}
    ]}
  ]
}
